We go through 14 molecules from PubChem BioAssay AID977625 (Broad Institute, 2014).

Records with an inconclusive call do not appear. Active and inactive are the calls of the source.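 Rule for the calls: active = red signal from normal-ribosome E. coli cut at least twice as much as green humanized-ribosome signal, growth cut under 30%; inconclusive = no clear call, values can overlap the other calls; inactive = the rest.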

Test [1] is described as follows: growth inhibition of h34-humanized E. coli versus wild-type, dose response, h34 mutant GFP vs wild-type RFP, cherry-pick, OD600 (AID 977625). To be noted: E. coli h34-humanized GFP strain growth, fluorescence, 24 h; at 50 µM (top of the series).
The subject of test [2] is E. coli mixed culture (wild-type RFP + h34-humanized GFP), total OD600 growth, 24 h. Described as above. Particulars: E. coli h34-humanized GFP strain growth, fluorescence, 24 h; measured here: total culture OD600 growth.
In test [3] the test system is E. coli h34-humanized GFP strain growth, fluorescence, 24 h. Described as above.

One may read the AC50 as the concentration giving half of the maximal activity seen.

Take `CCOC(=O)c1c(NC(=O)Cc2cccs2)sc(C)c1C`: the activity change, negative = inhibition in test [1] was 12.4 (inactive). Moreover, the AC50 in test [2] is greater than 100 µM.

As to `COc1ccc(Cn2c(-c3ccc(Cl)cc3)c[n+]3ccccc23)cc1`, the activity change, negative = inhibition in test [1] is 30.2 (inactive).

`COc1ccc2[nH]c3c(=O)n(CCCCC(=O)NCCC(C)C)c(=S)[nH]c3c2c1`: in test [1], the activity change, negative = inhibition is -5.72 (inactive). In the case of `CCn1c(-c2cc(-c3ccc(OC(C)C)cc3)nc3ccccc23)n[nH]c1=S`, the AC50 in test [3] is > 100 µM (inactive).

Turning to `Cc1noc(C)c1NC(=O)Nc1ccc2c(c1)C(=O)N([C@H](C)CO)C[C@@H](C)[C@@H](CN(C)C(=O)Nc1ccc3c(c1)OCO3)OCCCC[C@@H](C)O2`, the activity change, negative = inhibition in test [1] is 0.093 (inactive). As to `C[C@@H]1CCCCO[C@H](CN(C)C(=O)CCCN(C)C)[C@H](C)CN([C@@H](C)CO)C(=O)c2cc(NC(=O)Nc3cccc4ccccc34)ccc2O1`, the activity change, negative = inhibition in test [1] was 21.7 (inactive). Further, the concentration at half-maximal activity (AC50) in test [2] was greater than 100 µM. As for `COc1cc2c(cc1[N+](=O)[O-])-c1ccc([N+](=O)[O-])cc1C2`, the activity change, negative = inhibition in test [1] was -48.1 (inactive). The AC50 in test [2] worked out at 0.378 µM. Regarding `CCN(CC)CCn1c2ccccc2c2nc3ccc([N+](=O)[O-])cc3cc21`, the AC50 in test [3] was 1.39 µM (inactive); in test [2] it was 4.35 µM. In the case of `O=C(O)c1cc([N+](=O)[O-])ccc1NCc1ccccc1`, the half-maximal activity concentration (AC50) in test [2] was 20.1 µM.

As for `CC1(Cc2ccccc2C#N)C(=O)Nc2cc(-c3ccccc3Cl)ccc21` (stereo unspecified), the AC50 in test [2] was 24.8 µM.

With `COc1ccc(-n2cc(-c3ccccc3)c3c(N4CCOCC4)ncnc32)cc1`, the values for the AC50 in test [3] and in test [2] were > 100 µM (inactive) and 42.2 µM, respectively. In the case of `Cc1ccc(C)c(NC(=O)CSc2nc3nc(-c4cccs4)cc(C(F)(F)F)c3c(=O)[nH]2)c1`, in test [1], the activity change, negative = inhibition is -48.2 (inactive). The AC50 in test [2] stood at 36.2 µM.

Take `Cc1ccc(S(=O)(=O)N2CC[C@H]3[C@H](CO)Nc4ccc(Br)cc4[C@H]32)cc1`: in test [1], the activity change, negative = inhibition was 7.09 (inactive). As to `COc1cccc(C(=O)Nc2cc(C)nn2-c2ccccc2)c1OC`, the activity change, negative = inhibition in test [1] was 18.9 (inactive). In test [2], the AC50 is greater than 100 µM.
